Key:
Assay type in all cases: cell-based
[1] = test system: cyclin A; experiment: Western blot of cyclin A levels in SW480 cells; conditions: SW480, 6.3 μM, relative to control
Experimental: (§1) SW480 cells were seeded in 6-well plates and treated as described in the previous subsection. After 24, 48 or 72 h of incubation, adherent cells were washed twice with ice-cold DPBS and incubated with lysis buffer (0.2% Triton X-100, 0.5 mM sodium deoxycholate, 1 mM Na-EDTA, 1 mM DTT, 20 mM Tris–HCl (pH 7.5), 0.5% phosphatases inhibitor cocktail, and 1% proteases inhibitor cocktail) for 30 min at 4 °C. The cells were scraped, sonicated, and centrifuged at 120 00 × g (20 min at 4 °C). […] The gels were then transferred to PVDF membranes, which were blocked with 5% skim milk in PBS-Tween-20 (0.1%) for 1 h at room temperature. Subsequently, the membranes were incubated with the primary antibodies for 30 mi at room temperature (actin) or overnight at 4 °C (CDK4, CDK6, cyclin A, Rb and SOD2/MnSOD). After incubation, the membranes were washed with PBS-Tween-20 (0.1%) and incubated with anti-mouse secondary antibody (40 min) or anti-rabbit secondary antibody (1 h) at room temperature. Finally, the membranes were washed with PBS-Tween-20 (0.1%) and treated with the Immobilon Western Chemiluminescent HRP Substrate Kit, and autoradiography was performed using an FPM-100A film processor (Fujifilm, Tokyo, Japan). western blot results were obtained from three independent experiments, except for cyclin A at 24 h (n = 2), Rb protein at 24 and 72 h (n = 2), and SOD2 (MnSOD) at 72 h (n = 2).

[2] = test system: HCT116 cells; experiment: MTT cell viability assay in HCT116 cells
Experimental: The MTT assay was used to assess the effect of the compounds on cell viability. […] Subsequently, the culture medium was switched with a new medium containing DMSO (control) or the compound at a specified concentration. […] The plates were then incubated for 1 h at 37 °C. After this time, the supernatant was aspirated, and the formazan crystals were dissolved in 100 μL of DMSO in each well. Relative cell viability was calculated by measuring absorbance at 570 nm using a Benchmark Plus Microplate Reader (Bio-Rad Laboratories, Hercules, CA, USA).

[3] = test system: A375 cells; experiment: MTT cell viability assay in A375 cells; conditions: Homo sapiens, A-375, 72 h, read-out: IC50 A375
Experimental: The MTT assay was used to assess the effect of the compounds on cell viability. For this purpose, A375 (1500 cells per well), BJ (10 000 cells per well), Caco-2 (4000 cells per well), HCT116 (3000 cells per well), Mia Paca-2 (2000 cells per well), SW480 (6000 cells per well), and SW620 (8000 cells per well) cells were seeded in 96-well plates and incubated for 24 h. Subsequently, the culture medium was switched with a new medium containing DMSO (control) or the compound at a specified concentration. Following a 72 h incubation period, the supernatant was aspirated, and 100 μL of a mixture (1 : 1) of filtered MTT solution (1 mg per mL PBS) and FBS-free medium was added. The plates were then incubated for 1 h at 37 °C. After this time, the supernatant was aspirated, and the formazan crystals were dissolved in 100 μL of DMSO in each well. Relative cell viability was calculated by measuring absorbance at 570 nm using a Benchmark Plus Microplate Reader (Bio-Rad Laboratories, Hercules, CA, USA). Results are presented as the mean ± standard deviation (SD) of IC50 values, determined by nonlinear regression analysis of dose–response curves (log(inhibitor) vs. response with variable slope (four parameters)) using GraphPad Prism 9 software (GraphPad Software, San Diego, CA, USA).

[4] = test system: CDK6; experiment: Western blot of CDK6 levels in SW480 cells; conditions: SW480, 6.3 μM, relative to control
Experimental: as §1

**Q.** For `CC(=O)Oc1c(C(C)C)cc2c(c1OC(C)=O)[C@@]1(NC(=O)OCC(C)C)CCCC(C)(C)[C@@H]1CC2` [Compound 17, (4bR,8aS)-8,8-Dimethyl-4b-{[(2-methylpropoxy)carbonyl]amino}-2-(propan-2-yl)-4b,5,6,7,8,8a,9,10-octahydrophenanthrene-3,4-diyl diacetate], which “cyclin A expression” value ([1]; 24 h) is on record?
**A.** decrease

**Q.** What about the “cyclin A expression” value ([1]; 48 h) of the same compound?
**A.** did not affect

**Q.** And the “fold more active than cisplatin” value ([2]; HCT116 cells, ratio of IC50 values)?
**A.** 1.2 fold

**Q.** What about the IC50 ([2]; Homo sapiens, HCT-116, 72 h, read-out: IC50 HCT116) of the same compound?
**A.** 17 ± 2 µM

**Q.** And the IC50 [3]?
**A.** 6.7 ± 0.5 µM

**Q.** And the CDK6 protein level ([4]; 24 h)?
**A.** significantly reduced

**Q.** What about the CDK6 protein level ([4]; 48 h) of the same compound?
**A.** lower than those in the control group
